Data from publication PMC5431190, “Investigation of cationicity and structure of pseudin-2 analogues for enhanced bacterial selectivity and anti-inflammatory activity” (Scientific Reports, 2017).
Values after ≈ are worked out from the molar mass of the structure shown. Read-outs that look alike come from different tables or passages of the source. Residues, ends and D or L forms follow the SMILES beside them.

Assays:
[1] = tested on: S. aureus 3108(R) (MRSA 3108); type: cell-based, Staphylococcus aureus; conditions: multidrug-resistant strain; 1% peptone media, 16 h at 37 °C
[2] = tested on: Acinetobacter baumannii CCARM 12036 (MDRAB 12036); type: cell-based; conditions: multidrug-resistant strain; 1% peptone media, 16 h at 37 °C
Description: (§1) Four Gram-negative bacteria species (Escherichia coli KCTC 1682, Acinetobacter baumannii KCTC 2508, Pseudomonas aeruginosa KCTC 1637 and Salmonella typhimurium KCTC 1926) and three Gram-positive bacteria species (Staphylococcus aureus KCTC 1621, Bacillus subtilis KCTC 3028 and Staphylococcus epidermidis KCTC 1917) were procured from the Korean Collection for Type Cultures (KCTC). Multi-drug-resistant Gram-negative bacteria (Salmonella typhimurium CCARM 8003 and 8007, Escherichia coli CCARM 1229 and 1238, Pseudomonas aeruginosa CCARM 2002 and 2095 and Acinetobacter baumannii CCARM 12035 and 12036) were obtained from the Culture Collection of Antibiotic-Resistant Microbes (CCARM). To determine MICs, bacteria were cultured in Luria-Bertani (LB) medium for overnight at 37 °C. An aliquot of the culture was incubated in 1% peptone media at 37 °C until mid-log phase. 100 μl of serial 2-fold diluted peptides were treated in 96 well plates and added to 100 μl of 2 × 10^6 CFU/ml bacterial suspensions in 1% peptone media for 16 h at 37 °C.

[3] = tested on: Pseudomonas aeruginosa KCTC 1637; type: cell-based
Description: as §1

[4] = tested on: Staphylococcus epidermidis KCTC 1917; type: cell-based
Description: as §1

[5] = tested on: Gram-negative bacteria (E. coli, A. baumannii, P. aeruginosa, S. typhimurium); type: cell-based
Description: as §1

[6] = tested on: Pseudomonas aeruginosa CCARM 2095 (MDRPA 2095); type: cell-based; conditions: multidrug-resistant strain; 1% peptone media, 16 h at 37 °C
Description: as §1

[7] = tested on: Salmonella typhimurium CCARM 8003 (MDRST 8003); type: cell-based; conditions: multidrug-resistant strain; 1% peptone media, 16 h at 37 °C
Description: as §1

[8] = tested on: Pseudomonas aeruginosa CCARM 2002 (MDRPA 2002); type: cell-based; conditions: multidrug-resistant strain; 1% peptone media, 16 h at 37 °C
Description: as §1

[9] = tested on: Escherichia coli CCARM 1229 (MDREC 1229); type: cell-based; conditions: multidrug-resistant strain; 1% peptone media, 16 h at 37 °C
Description: as §1

[10] = tested on: Salmonella typhimurium KCTC 1926; type: cell-based
Description: as §1

[11] = tested on: Staphylococcus aureus KCTC 1621; type: cell-based
Description: as §1

[12] = tested on: Acinetobacter baumannii CCARM 12035 (MDRAB 12035); type: cell-based; conditions: multidrug-resistant strain; 1% peptone media, 16 h at 37 °C
Description: as §1

[13] = tested on: Gram-positive bacteria (S. aureus, B. subtilis, S. epidermidis); type: cell-based
Description: as §1

[14] = tested on: Bacillus subtilis KCTC 3028; type: cell-based
Description: as §1

[15] = tested on: Salmonella typhimurium CCARM 8007 (MDRST 8007); type: cell-based; conditions: multidrug-resistant strain; 1% peptone media, 16 h at 37 °C
Description: as §1

[16] = tested on: Escherichia coli KCTC 1682; type: cell-based
Description: as §1

[17] = tested on: Escherichia coli CCARM 1238 (MDREC 1238); type: cell-based; conditions: multidrug-resistant strain; 1% peptone media, 16 h at 37 °C
Description: as §1

[18] = tested on: Acinetobacter baumannii KCTC 2508; type: cell-based
Description: as §1

[19] = tested on: S. aureus 3089(R) (MRSA 3089); type: cell-based, Staphylococcus aureus; conditions: multidrug-resistant strain; 1% peptone media, 16 h at 37 °C
[20] = tested on: human red blood cells (hRBCs); assay: Haemolytic activity; type: cell-based
Method: Peptide-induced lysis of human red blood cells (hRBCs) was determined as follows. Fresh hRBCs were washed 2–3 times with phosphate-buffered saline (PBS) by centrifugation for 5 min at 2500 rpm at 4 °C. Peptides in PBS were incubated with 4% (v/v) hRBCs for 1 h at 37 °C. Samples were then centrifuged for 5 min at 1000 × g. The absorbance of the supernatant at 405 nm was used as a measure of haemolysis. As a positive control, 100% haemolysis was obtained by treating hRBCs with 0.1% Triton X-100.

[21] = tested on: S. aureus 3126(R) (MRSA 3126); type: cell-based, Staphylococcus aureus; conditions: multidrug-resistant strain; 1% peptone media, 16 h at 37 °C

Structure (SMILES) | MIC, MRSA 3108 [1] | MIC, MDRAB 12036 [2] | MIC, MDRPA 2095 [6] | MIC, MDRST 8003 [7] | MIC, MDRPA 2002 [8] | MIC, MDREC 1229 [9] | MIC, MDRAB 12035 [12] | MIC, MDRST 8007 [15] | MIC, MDREC 1238 [17] | MIC, MRSA 3089 [19] | MIC, MRSA 3126 [21] | also measured
CC[C@H](C)[C@H](NC(=O)[C@H](C)NC(=O)[C@H](CCCCN)NC(=O)[C@H](Cc1c[nH]cn1)NC(=O)[C@@H](NC(=O)[C@@H]1CCCN1C(=O)[C@H](CCC(N)=O)NC(=O)[C@H](Cc1ccccc1)NC(=O)[C@@H](NC(=O)[C@H](CCCCN)NC(=O)[C@H](CCCCN)NC(=O)[C@H](CC(C)C)NC(=O)[C@H](C)NC(=O)[C@H](CC(N)=O)NC(=O)[C@H](CC(C)C)NC(=O)CN)C(C)C)[C@@H](C)CC)C(=O)N[C@@H](CCCCN)C(=O)N[C@@H](CCCCN)C(=O)N[C@H](C(=O)N[C@@H](CC(N)=O)C(=O)N[C@@H](CC(N)=O)C(=O)N[C@@H](Cc1c[nH]cn1)C(=O)N[C@H](C(=O)N[C@@H](CCC(N)=O)C(=O)O)C(C)C)[C@@H](C)CC [Ps-K14-K18-P] (H-GLNALKKVFQPIHKAIKKINNHVQ-OH) | 32 µM (≈ 87.7 µg/mL) | 8 µM (≈ 21.9 µg/mL) | 16 µM (≈ 43.8 µg/mL) | 16 µM (≈ 43.8 µg/mL) | 16 µM (≈ 43.8 µg/mL) | 8 µM (≈ 21.9 µg/mL) | 16 µM (≈ 43.8 µg/mL) | 16 µM (≈ 43.8 µg/mL) | 8 µM (≈ 21.9 µg/mL) | 32 µM (≈ 87.7 µg/mL) | 64 µM (≈ 175 µg/mL) | MIC, P. aeruginosa ([3]; standard strain KCTC 1637, 1% peptone media, 16 h at 37 °C, three independent experiments in triplicate, SD 14.0%): 8 µM (≈ 21.9 µg/mL); MIC, S. epidermidis ([4]; standard strain KCTC 1917, 1% peptone media, 16 h at 37 °C, three independent experiments in triplicate, SD 14.0%): 64 µM (≈ 175 µg/mL); Average MIC, Gram-negative ([5]; average over the four Gram-negative standard strains): 7 µM; MIC, S. typhimurium ([10]; standard strain KCTC 1926, 1% peptone media, 16 h at 37 °C, three independent experiments in triplicate, SD 14.0%): 8 µM (≈ 21.9 µg/mL); MIC, S. aureus ([11]; standard strain KCTC 1621, 1% peptone media, 16 h at 37 °C, three independent experiments in triplicate, SD 14.0%): 32 µM (≈ 87.7 µg/mL); Average MIC, Gram-positive ([13]; average over the three Gram-positive standard strains): 42.67 µM; MIC, B. subtilis ([14]; standard strain KCTC 3028, 1% peptone media, 16 h at 37 °C, three independent experiments in triplicate, SD 14.0%): 32 µM (≈ 87.7 µg/mL); MIC, E. coli ([16]; standard strain KCTC 1682, 2-fold dilutions, 1% peptone media, 2 × 10^6 CFU/ml suspension, 16 h at 37 °C, three independent experiments in triplicate, SD 14.0%): 4 µM (≈ 11 µg/mL); MIC, A. baumannii ([18]; standard strain KCTC 2508, 1% peptone media, 16 h at 37 °C, three independent experiments in triplicate, SD 14.0%): 8 µM (≈ 21.9 µg/mL); haemolysis at 400 μM ([20]; 400 μM peptide, 4% hRBCs, PBS, 1 h at 37 °C, 100% = 0.1% Triton X-100): 0.3%; MHC (minimal peptide concentration that produces haemolysis) ([20]; 4% (v/v) hRBCs in PBS, 1 h at 37 °C, absorbance 405 nm, printed in both Gram-negative and Gram-positive sections): 400 µM
CC[C@H](C)[C@H](NC(=O)CNC(=O)[C@H](CCC(N)=O)NC(=O)[C@H](Cc1ccccc1)NC(=O)[C@@H](NC(=O)[C@H](CCCCN)NC(=O)[C@H](CCCCN)NC(=O)[C@H](CC(C)C)NC(=O)[C@H](C)NC(=O)[C@H](CC(N)=O)NC(=O)[C@H](CC(C)C)NC(=O)CN)C(C)C)C(=O)N[C@@H](Cc1c[nH]cn1)C(=O)N[C@@H](CCCCN)C(=O)N[C@@H](C)C(=O)N[C@H](C(=O)N[C@@H](CCCCN)C(=O)N[C@@H](CCCCN)C(=O)N[C@H](C(=O)N[C@@H](CC(N)=O)C(=O)N[C@@H](CC(N)=O)C(=O)N[C@@H](Cc1c[nH]cn1)C(=O)N[C@H](C(=O)N[C@@H](CCC(N)=O)C(=O)O)C(C)C)[C@@H](C)CC)[C@@H](C)CC [Ps-K14-K18] (H-GLNALKKVFQGIHKAIKKINNHVQ-OH) | 4 µM (≈ 10.8 µg/mL) | 2 µM (≈ 5.4 µg/mL) | 4 µM (≈ 10.8 µg/mL) | 4 µM (≈ 10.8 µg/mL) | 2 µM (≈ 5.4 µg/mL) | 2 µM (≈ 5.4 µg/mL) | 2 µM (≈ 5.4 µg/mL) | 4 µM (≈ 10.8 µg/mL) | 2 µM (≈ 5.4 µg/mL) | 8 µM (≈ 21.6 µg/mL) | 4 µM (≈ 10.8 µg/mL) | MIC, P. aeruginosa ([3]; KCTC 1637, 16 h): 2 µM (≈ 5.4 µg/mL); MIC, S. epidermidis ([4]; KCTC 1917, 16 h): 16 µM (≈ 43.2 µg/mL); Average MIC, Gram-negative ([5]; 16 h): 1.75 µM; MIC, S. typhimurium ([10]; KCTC 1926, 16 h): 2 µM (≈ 5.4 µg/mL); MIC, S. aureus ([11]; KCTC 1621, 16 h): 8 µM (≈ 21.6 µg/mL); Average MIC, Gram-positive ([13]; 16 h): 10.67 µM; MIC, B. subtilis ([14]; KCTC 3028, 16 h): 8 µM (≈ 21.6 µg/mL); MIC, E. coli ([16]; KCTC 1682, 16 h): 1 µM (≈ 2.7 µg/mL); MIC, A. baumannii ([18]; KCTC 2508, 16 h): 2 µM (≈ 5.4 µg/mL); MHC (minimal peptide concentration that produces haemolysis) ([20]; red cells of human, 1 h): 100 µM; haemolysis at 100 μM ([20]; red cells of human, 1 h, 100): 1.1%
